From patent US20080175888A1, “Combination Therapy Comprising Actinidia and Steroids and Uses Thereof” (priority 2005, published 2008) come the findings set out here.

The test has as its system production of IL-13 and IFN-γ by OVA-stimulated mouse splenocytes. The experiment in a line: Cytokine production in OVA-stimulated splenocyte cultures, ELISA (Example 3). Conditions: 3 days exposure in vitro, FIG. 5A/5B. In kind it is cell-based.

Method: The purpose of this study was to assess the ability of A. arguta extracts that originate from plant parts other than the fruit, or from alternative preparations of the fruit (i.e., other than the extracts described in U.S. Patent Publication No. 2004/0037909, supra), to modulate cytokine production (IL-13 and IFNγ) in splenocyte cultures derived from ovalbumin-sensitized mice, using ELISA analysis. The following samples (prepared as described above) were tested: water extracts of the stem, root, and bark of A. arguta, prepared as described in Example 1; “boiled” fresh fruit preparations; the fruit juice concentrate prepared as described in Example 1; FD001 (large scale equivalent of PG102T) prepared as described in Example 1; FD001 powder prepared as described in Example 1 (used for clinical trials described below); a room temperature water extract of the dried A. arguta fruit; the EtOAc extract prepared as described in Example 1; and aqueous remainder, also described in Example 1. In addition, the activity of three known immunosuppressive compounds, cyclosporin, dexamethasone, and quercetin were evaluated as controls.
Preparation of the splenocytes was performed in a manner identical to that described above for Example 2. […]
The cytokine levels in the culture supernatants from all treatment and control wells were determined by ELISA assay. […]

With `O=c1c(O)c(-c2ccc(O)c(O)c2)oc2cc(O)cc(O)c12` [quercetin], the “concentration of potent activity (suppression of IL-13 and IFN-γ)” value fell in the range of 1 to 25 µM.
